Data as given in patent US8604217B2, “Compound, a process for its preparation, a pharmaceutical composition, use of a compound, a method for modulating or regulating serine/threonine kinases and a serine/threonine kinases modulating agent” (Selvita S.A., priority 2009, dated 2013).

How the values were obtained:
Experiment in all cases: KinaseProfiler kinase panel
Format in all cases: biochemical
[1] = target: CDK2/cyclinE(h) (Homo sapiens (Human), UniProt P24941)
[2] = target: PKG1α(h) (Homo sapiens (Human), UniProt Q13976)
[3] = target: PIM-2(h) (Homo sapiens (Human), UniProt Q9P1W9)
[4] = target: EGFR(L858R)(h) (Homo sapiens (Human), UniProt P00533, L858R)
[5] = target: PKCθ(h) (Homo sapiens (Human), UniProt Q04759)
[6] = target: TAK1(h) (Homo sapiens (Human), UniProt O43318)
[7] = target: PKBα(h) (Homo sapiens (Human), UniProt P31749)
[8] = target: CK1δ(h) (Homo sapiens (Human), UniProt P48730)
[9] = target: Src(1-530)(h) (Homo sapiens (Human), UniProt P12931)
[10] = target: Lck(h) activated (Homo sapiens (Human), UniProt P06239)
[11] = target: Met(M1268T)(h) (Homo sapiens (Human), UniProt P08581, M1268T)
[12] = target: MST1(h) (Homo sapiens (Human), UniProt Q13043)
[13] = target: Fms(h) (Homo sapiens (Human), UniProt P07333)
[14] = target: Met(Y1248C)(h) (Homo sapiens (Human), UniProt P08581, Y1248C)
[15] = target: RIPK2(h) (Homo sapiens (Human), UniProt O43353)
[16] = target: SGK2(h) (Homo sapiens (Human), UniProt Q9HBY8)
[17] = target: Rsk2(h) (Homo sapiens (Human), UniProt P51812)
[18] = target: AMPKα1(h) (Homo sapiens (Human), UniProt Q13131)
[19] = target: TAO2(h) (Homo sapiens (Human), UniProt Q9UL54)
[20] = target: SIK(h) (Homo sapiens (Human), UniProt P57059)
[21] = target: ULK3(h) (Homo sapiens (Human), UniProt Q6PHR2)
[22] = target: NEK3(h) (Homo sapiens (Human), UniProt P51956)
[23] = target: EphB1(h) (Homo sapiens (Human), UniProt P54762)
[24] = target: PKBβ(h) (Homo sapiens (Human), UniProt P31751)
[25] = target: IRR(h) (Homo sapiens (Human), UniProt P14616)
[26] = target: GRK7(h) (Homo sapiens (Human), UniProt Q8WTQ7)
[27] = target: MST3(h) (Homo sapiens (Human), UniProt Q9Y6E0)
[28] = target: FGFR4(h) (Homo sapiens (Human), UniProt P22455)
[29] = target: mTOR(h) (Homo sapiens (Human), UniProt P42345)
[30] = target: ZIPK(h) (Homo sapiens (Human), UniProt O43293)
[31] = target: DMPK(h) (Homo sapiens (Human), UniProt Q09013)
[32] = target: PDGFRα(h) (Homo sapiens (Human), UniProt P16234)
[33] = target: EphA5(h) (Homo sapiens (Human), UniProt P54756)
[34] = target: SAPK2a(h) (Homo sapiens (Human), UniProt Q16539)
[35] = target: ASK1(h) (Homo sapiens (Human), UniProt Q99683)
[36] = target: BTK(R28H)(h) (Homo sapiens (Human), UniProt Q06187, R28H)
[37] = target: BrSK1(h) (Homo sapiens (Human), UniProt Q8TDC3)
[38] = target: mTOR/FKBP12(h) (Homo sapiens (Human), UniProt P42345)
[39] = target: TBK1(h) (Homo sapiens (Human), UniProt Q9UHD2)
[40] = target: EphB3(h) (Homo sapiens (Human), UniProt P54753)

Sequence of SGK2(h) (Q9HBY8 whole entry): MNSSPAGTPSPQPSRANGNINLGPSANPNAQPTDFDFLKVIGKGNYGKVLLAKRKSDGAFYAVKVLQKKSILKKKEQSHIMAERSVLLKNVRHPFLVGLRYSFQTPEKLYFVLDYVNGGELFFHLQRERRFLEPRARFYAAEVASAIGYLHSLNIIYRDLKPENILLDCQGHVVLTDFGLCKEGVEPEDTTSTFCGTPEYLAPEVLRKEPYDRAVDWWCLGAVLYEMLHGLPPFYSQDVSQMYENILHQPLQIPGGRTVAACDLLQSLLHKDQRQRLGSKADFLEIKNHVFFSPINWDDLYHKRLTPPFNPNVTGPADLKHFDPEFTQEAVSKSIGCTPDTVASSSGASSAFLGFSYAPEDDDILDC
Sequence of PKCθ(h) (Q04759 whole entry): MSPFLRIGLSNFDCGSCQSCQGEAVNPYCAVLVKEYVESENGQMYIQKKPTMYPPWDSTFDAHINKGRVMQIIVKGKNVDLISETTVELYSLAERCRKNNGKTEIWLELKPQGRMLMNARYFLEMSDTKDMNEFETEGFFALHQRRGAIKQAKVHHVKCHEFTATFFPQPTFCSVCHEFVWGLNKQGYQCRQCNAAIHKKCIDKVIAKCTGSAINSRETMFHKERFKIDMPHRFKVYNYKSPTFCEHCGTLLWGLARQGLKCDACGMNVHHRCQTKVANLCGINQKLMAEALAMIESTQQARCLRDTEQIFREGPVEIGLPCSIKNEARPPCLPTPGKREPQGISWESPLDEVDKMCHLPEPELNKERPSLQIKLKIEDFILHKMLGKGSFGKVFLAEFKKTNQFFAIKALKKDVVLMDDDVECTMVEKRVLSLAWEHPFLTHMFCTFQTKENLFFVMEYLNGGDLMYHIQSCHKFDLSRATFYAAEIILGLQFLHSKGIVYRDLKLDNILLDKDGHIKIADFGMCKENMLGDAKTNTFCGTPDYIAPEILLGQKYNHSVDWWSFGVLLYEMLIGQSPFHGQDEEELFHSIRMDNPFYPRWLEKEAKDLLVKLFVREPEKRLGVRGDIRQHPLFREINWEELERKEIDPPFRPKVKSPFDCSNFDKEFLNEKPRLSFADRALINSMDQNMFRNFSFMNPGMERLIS
Sequence of AMPKα1(h) (Q13131 whole entry): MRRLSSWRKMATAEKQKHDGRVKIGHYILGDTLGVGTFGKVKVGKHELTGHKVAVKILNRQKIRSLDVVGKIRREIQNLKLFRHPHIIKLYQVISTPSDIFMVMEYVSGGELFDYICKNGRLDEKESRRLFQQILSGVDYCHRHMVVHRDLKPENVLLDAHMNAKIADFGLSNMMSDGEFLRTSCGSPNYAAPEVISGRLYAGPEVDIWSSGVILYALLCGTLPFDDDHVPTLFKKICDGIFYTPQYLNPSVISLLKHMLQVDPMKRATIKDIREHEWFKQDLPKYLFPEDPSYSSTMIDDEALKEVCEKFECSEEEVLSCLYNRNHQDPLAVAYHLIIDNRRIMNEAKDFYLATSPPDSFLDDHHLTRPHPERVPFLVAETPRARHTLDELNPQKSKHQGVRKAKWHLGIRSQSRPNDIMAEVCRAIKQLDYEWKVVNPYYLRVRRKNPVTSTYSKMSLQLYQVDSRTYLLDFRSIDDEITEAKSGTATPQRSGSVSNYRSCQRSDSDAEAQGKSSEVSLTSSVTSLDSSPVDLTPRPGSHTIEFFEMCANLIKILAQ
Sequence of AMPKα1(h) (Q9Y478 whole entry partner): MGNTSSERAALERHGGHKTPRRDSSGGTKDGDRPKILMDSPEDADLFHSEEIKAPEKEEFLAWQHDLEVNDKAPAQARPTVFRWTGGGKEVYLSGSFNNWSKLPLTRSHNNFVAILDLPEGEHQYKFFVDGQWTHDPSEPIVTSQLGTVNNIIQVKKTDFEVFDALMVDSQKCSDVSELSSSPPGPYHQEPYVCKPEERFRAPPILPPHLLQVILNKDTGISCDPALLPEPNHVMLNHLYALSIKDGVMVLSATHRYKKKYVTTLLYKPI
Sequence of AMPKα1(h) (P54619 whole entry partner): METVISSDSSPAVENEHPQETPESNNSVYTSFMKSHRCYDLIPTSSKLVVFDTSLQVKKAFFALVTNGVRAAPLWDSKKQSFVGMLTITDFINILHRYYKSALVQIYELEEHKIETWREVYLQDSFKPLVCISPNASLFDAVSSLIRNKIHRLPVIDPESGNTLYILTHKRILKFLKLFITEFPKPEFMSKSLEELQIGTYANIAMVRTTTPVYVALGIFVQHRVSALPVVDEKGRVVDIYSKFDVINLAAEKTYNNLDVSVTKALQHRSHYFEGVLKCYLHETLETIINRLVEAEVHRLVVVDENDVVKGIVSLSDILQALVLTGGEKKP
Sequence of TAK1(h) (O43318 1-303): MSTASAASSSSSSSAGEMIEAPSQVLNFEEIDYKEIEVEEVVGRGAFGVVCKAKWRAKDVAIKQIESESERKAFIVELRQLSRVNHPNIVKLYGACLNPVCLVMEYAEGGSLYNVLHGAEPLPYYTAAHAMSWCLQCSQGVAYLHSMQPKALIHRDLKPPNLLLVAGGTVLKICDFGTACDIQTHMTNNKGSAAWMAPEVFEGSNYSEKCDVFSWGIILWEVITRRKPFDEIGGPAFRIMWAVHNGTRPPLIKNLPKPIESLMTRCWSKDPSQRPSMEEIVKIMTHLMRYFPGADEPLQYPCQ
Sequence of PKBβ(h) (P31751 whole entry): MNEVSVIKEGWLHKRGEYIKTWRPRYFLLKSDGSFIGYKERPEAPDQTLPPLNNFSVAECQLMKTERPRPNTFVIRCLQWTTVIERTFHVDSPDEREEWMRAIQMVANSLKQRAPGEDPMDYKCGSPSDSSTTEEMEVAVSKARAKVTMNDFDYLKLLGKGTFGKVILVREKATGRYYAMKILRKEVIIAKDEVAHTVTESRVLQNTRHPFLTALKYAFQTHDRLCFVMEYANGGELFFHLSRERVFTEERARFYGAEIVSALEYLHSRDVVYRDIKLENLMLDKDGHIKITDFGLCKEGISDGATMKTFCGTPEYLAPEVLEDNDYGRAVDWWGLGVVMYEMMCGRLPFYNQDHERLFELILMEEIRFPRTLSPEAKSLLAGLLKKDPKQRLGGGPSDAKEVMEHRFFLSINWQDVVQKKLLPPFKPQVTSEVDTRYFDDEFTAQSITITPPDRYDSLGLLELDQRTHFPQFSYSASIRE
Sequence of MST1(h) (Q13043 whole entry): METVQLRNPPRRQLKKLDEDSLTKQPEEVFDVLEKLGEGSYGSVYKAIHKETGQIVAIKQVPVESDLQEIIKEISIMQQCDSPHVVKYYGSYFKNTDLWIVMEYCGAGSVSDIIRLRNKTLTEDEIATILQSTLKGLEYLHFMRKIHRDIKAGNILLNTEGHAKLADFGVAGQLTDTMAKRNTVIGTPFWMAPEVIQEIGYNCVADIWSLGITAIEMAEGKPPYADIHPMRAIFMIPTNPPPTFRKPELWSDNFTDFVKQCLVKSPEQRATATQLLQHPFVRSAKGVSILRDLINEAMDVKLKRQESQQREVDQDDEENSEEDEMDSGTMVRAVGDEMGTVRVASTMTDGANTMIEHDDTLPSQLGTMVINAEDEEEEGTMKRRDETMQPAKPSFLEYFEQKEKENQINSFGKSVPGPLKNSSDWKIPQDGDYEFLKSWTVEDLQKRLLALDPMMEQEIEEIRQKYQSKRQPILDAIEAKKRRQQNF
Sequence of PIM-2(h) (Q9P1W9 whole entry): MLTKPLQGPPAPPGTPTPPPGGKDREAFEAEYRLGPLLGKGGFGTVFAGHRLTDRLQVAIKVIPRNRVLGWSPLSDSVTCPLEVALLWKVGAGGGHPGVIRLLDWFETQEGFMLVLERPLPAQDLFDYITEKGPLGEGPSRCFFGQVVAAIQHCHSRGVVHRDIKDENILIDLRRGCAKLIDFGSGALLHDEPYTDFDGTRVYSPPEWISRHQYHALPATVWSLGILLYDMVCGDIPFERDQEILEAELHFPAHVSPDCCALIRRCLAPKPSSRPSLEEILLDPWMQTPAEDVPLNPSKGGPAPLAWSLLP
Sequence of TBK1(h) (Q9UHD2 whole entry): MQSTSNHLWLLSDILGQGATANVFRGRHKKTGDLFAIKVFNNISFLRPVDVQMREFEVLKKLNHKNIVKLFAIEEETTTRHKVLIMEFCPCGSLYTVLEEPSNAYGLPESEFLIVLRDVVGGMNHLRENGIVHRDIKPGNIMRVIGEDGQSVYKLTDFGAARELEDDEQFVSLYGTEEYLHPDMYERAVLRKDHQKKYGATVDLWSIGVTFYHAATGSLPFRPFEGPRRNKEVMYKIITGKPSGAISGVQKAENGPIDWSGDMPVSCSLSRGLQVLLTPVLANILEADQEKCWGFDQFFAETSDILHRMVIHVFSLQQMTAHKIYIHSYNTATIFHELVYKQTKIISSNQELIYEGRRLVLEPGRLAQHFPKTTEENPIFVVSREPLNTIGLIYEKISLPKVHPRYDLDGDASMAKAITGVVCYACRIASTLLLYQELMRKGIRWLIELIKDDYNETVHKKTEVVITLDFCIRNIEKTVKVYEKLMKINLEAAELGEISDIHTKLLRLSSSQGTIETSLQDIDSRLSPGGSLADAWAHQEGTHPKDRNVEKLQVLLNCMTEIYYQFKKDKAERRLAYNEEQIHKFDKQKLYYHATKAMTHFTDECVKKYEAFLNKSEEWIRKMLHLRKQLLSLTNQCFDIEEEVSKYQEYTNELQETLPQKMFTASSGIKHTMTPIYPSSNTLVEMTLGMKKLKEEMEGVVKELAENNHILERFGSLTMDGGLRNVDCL
Sequence of SAPK2a(h) (Q16539 whole entry): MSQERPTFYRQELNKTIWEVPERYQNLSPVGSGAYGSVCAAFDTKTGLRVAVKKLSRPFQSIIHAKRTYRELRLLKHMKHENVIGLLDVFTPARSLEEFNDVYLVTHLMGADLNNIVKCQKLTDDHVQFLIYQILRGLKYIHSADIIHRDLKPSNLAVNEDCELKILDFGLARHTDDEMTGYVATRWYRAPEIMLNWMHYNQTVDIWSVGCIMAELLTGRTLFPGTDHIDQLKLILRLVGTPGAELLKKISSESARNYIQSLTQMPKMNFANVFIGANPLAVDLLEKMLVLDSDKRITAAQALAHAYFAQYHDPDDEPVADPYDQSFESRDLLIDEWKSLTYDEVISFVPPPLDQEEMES

- remaining activity at 1 µM [1]: 6%
- remaining activity at 1 µM [2]: 7%
- remaining activity at 1 µM [3]: 10%
- remaining activity at 1 µM [4]: 22%
- remaining activity at 1 µM [5]: 26%
- remaining activity at 1 µM [6]: 52%
- remaining activity at 1 µM [7]: 59%
- remaining activity at 1 µM [8]: 62%
- remaining activity at 1 µM [9]: 65%
- remaining activity at 1 µM [10]: 69%
- remaining activity at 1 µM [11]: 70%
- remaining activity at 1 µM [12]: 71%
- remaining activity at 1 µM [13]: 72%
- remaining activity at 1 µM [14]: 73%
- remaining activity at 1 µM [15]: 79%
- remaining activity at 1 µM [16]: 79%
- remaining activity at 1 µM [17]: 81%
- remaining activity at 1 µM [18]: 82%
- remaining activity at 1 µM [19]: 82%
- remaining activity at 1 µM [20]: 84%
- remaining activity at 1 µM [21]: 84%
- remaining activity at 1 µM [22]: 85%
- remaining activity at 1 µM [23]: 87%
- remaining activity at 1 µM [24]: 90%
- remaining activity at 1 µM [25]: 91%
- remaining activity at 1 µM [26]: 93%
- remaining activity at 1 µM [27]: 93%
- remaining activity at 1 µM [28]: 94%
- remaining activity at 1 µM [29]: 95%
- remaining activity at 1 µM [30]: 95%
- remaining activity at 1 µM [31]: 97%
- remaining activity at 1 µM [32]: 98%
- remaining activity at 1 µM [33]: 99%
- remaining activity at 1 µM [34]: 99%
- remaining activity at 1 µM [35]: 100%
- remaining activity at 1 µM [36]: 102%
- remaining activity at 1 µM [37]: 103%
- remaining activity at 1 µM [38]: 103%
- remaining activity at 1 µM [39]: 104%
- remaining activity at 1 µM [40]: 121%
Structure (SMILES): CCn1c(N2CCNCC2)nc2c(Br)c(Br)c(Br)c(Br)c21 [Compound 416, 4,5,6,7-tetrabromo-1-ethyl-2-(piperazin-1-yl)-1H-benzo[d]imidazole]
